In US20020015941A1, “Method for treatment of neurodegenerative diseases” (The General Hospital Corporation, priority 2000, published 2002):
Read-outs that look alike come from different tables or passages of the source.

Legend:
[1] = test system: CHO and CHO-APP cells; conditions: Aβ42 pre-treatment
Description: The Aβ42 peptides were obtained from Bachem and dissolved in PBS at 1 mg/ml directly before use.

[2] = test system: capacitative calcium entry (CCE) in CHO cells; assay: CCE by ratiometric Ca2+ imaging in CHO cells; type: cell-based, Chinese hamster
[3] = test system: secreted APP-α in 293 cells stably expressing human APP; assay: Secreted APPs-α by immunoprecipitation (22C11) and blot (6E10); type: cell-based; conditions: SKF96365 treatment, 12 hour
[4] = test system: capacitative Ca2+ entry (CCE) in SY5Y cells; type: cell-based, human
[5] = test system: total Aβ and Aβ42 in D257A-PS1 CHO cells; assay: Aβ generation in CHO cells stably expressing APP and D257A-PS1; type: cell-based, Chinese hamster
[6] = test system: CHO or 293 cells stably expressing human APP
[7] = test system: Aβ42/Aβtotal in CHO cells stably overexpressing human APP; assay: Aβ sandwich ELISA, CHO cells stably overexpressing human APP; type: cell-based, Chinese hamster; conditions: CHO-APP, indicated concentrations for 12 hours (FIG. 5C)
[8] = test system: ICRAC channels in wild-type PS1 CHO cells; assay: ICRAC by whole-cell patch clamp in stable CHO cells; type: cell-based, Chinese hamster; conditions: wild-type PS1 CHO cells pretreated with 10 μM SKF96365 for 30 min
[9] = test system: voltage-operated Ca2+ channels; conditions: literature; cited from earlier work
[10] = test system: capacitative calcium entry (CCE); conditions: literature; cited from earlier work
[11] = test system: IP3-elicited release of Ca2+ from internal stores; conditions: literature; cited from earlier work

With “Aβ42: 42-amino acid version of amyloid β-peptide, obtained from Bachem” the cell viability [1] was “not affected” and the “CCE response after Aβ42 pre-treatment” value ([2]; CHO and CHO-APP cells pre-incubated with 20 PM Aβ42 for 3 hours) was “no detectable effect”.
For `COc1ccc(CCCOC(Cn2ccnc2)c2ccc(OC)cc2)cc1` (centres unmarked) [SKF96365], the “secreted APP-α levels” value [3] was “did not alter”, the “degree of CCE reduction in D257A-PS1 cells compared to wild-type PS1 cells” value ([2]; 50 μM SKF96365, 12 hrs) was “much less” and the “Ca2+ influx (CCE) after pretreatment” value ([4]; 100 μM SKF96365 1 hr, 100 nM CalyA 20 min, nifedipine 1 μM, ω-conotoxin GVIA 2 μM, prior to induction of CCE) was “blocked”. For the same compound, the “generation of Aβ42 in D257A-PS1 cells” value ([5]; 50 μM SKF96365) was “did not restore”, the “generation of total Aβ in D257A-PS1 cells” value ([5]; 50 μM SKF96365) was “did not restore” and the “relative Aβ42 levels as share of total Aβ levels in D257A cells” value ([5]; following treatment with SKF96365 (50 μM)) was “greater than 90%”. For the same compound, the cell viability [6] was “did not alter”, the “Aβ42-promoting effect versus concentration” value [7] was “dose-dependent” and the “ICRAC (peak current density)” value [8] was “virtually eliminated”. For the same compound, the “effect on voltage-operated Ca2+ channels” value [9] was “minor inhibitory effect”.
In the case of `C=C1[C@@H](C)[C@H]2[C@H](Cc3ccccc3)NC(=O)[C@]23[C@H](OC(C)=O)/C=C/[C@@](C)(O)C(=O)[C@@H](C)C/C=C/[C@H]3[C@@H]1O` [CytoD, Cytochalasin D], the “effect on CCE” value [10] is given as “no effect”, the “Ca2+ influx in wild-type PS1 or M146L-PS1 cells” value [4] is given as “essentially no effect” and the “IP3-elicited release of Ca2+ from internal stores” value [11] is given as “impairs”.
With ω-conotoxin GVIA the “Ca2+ influx (CCE) after pretreatment” value [4] was “virtually no effect”.
With Calyculin A the “Ca2+ influx (CCE) after pretreatment” value [4] was “blocked”.
